Experimental findings from patent US20250161428A1, “PREVENTING/TREATING PSEUDOMONAS AERUGINOSA INFECTION” (priority 2022, published 2025) are described below.

As usually defined, the Kd is the concentration at which binding is half-saturated.

Several values for one entry are separate records, joined by “and”; a condition that tells them apart may be missing. Equal entries are not always repeated. Where two headings read alike, the source gives them in different places.

The test system of one assay is mAb 1B1. Nature of the assay: mAb inhibition ELISA with synthetic oligosaccharides, mAb 1B1. The settings on record: P. aeruginosa PAO1 BAA-47 LPS or whole cell coated plates, 10 μg/ml mAb. The assay is classed as binding, mouse. The text has this: FIGS. 15A, 15B, and 15C show inhibition ELISAs of mAbs 1B1 (FIG. 15A), 3C4 (FIG. 15B) and 3B8 (FIG. 15C) with LPS (left hand panels; square markers—P. aeruginosa PAO1 BAA-47, inverted triangle markers—P. aeruginosa (wzy::Gm)(Δpa5458), diamond markers—N. meningitidis galE/lpt3 and circular markers—PBS control) or synthetic oligosaccharides representing the terminal methylated rhamnan (right hand panels; solid circle markers—pentasaccharide, open square markers—tetrasaccharide, open circle markers—trisaccharide, inverted triangle markers—disaccharide, diamond markers—disaccharide with linker, triangle markers—L-monomer, solid square markers—D-monomer) against P. aeruginosa PAO1 BAA-47 LPS. Serial dilution, as shown on the x-axis, of either LPS or synthetic oligosaccharide was combined at an equal volume with 10 μg/ml mAb. After 1 h incubation, 100 μl of this inhibition mixture was added to PAO1 BAA-47 LPS coated plates. A secondary mAb specific for the primary mAb was added and absorbance was measured after a colour reagent was added. The absorbance obtained when the mAb is no longer inhibited by additional LPS or synthetic oligosaccharide is equal to inhibition by PBS.
FIGS. 15D, 15E, and 15F show inhibition ELISAs of mAbs 1B1 (FIG. 15D), 3C4 (FIG. 15E) and 3B8 (FIG. 15F) with LPS (left hand panels; square markers—P. aeruginosa PAO1 BAA-47, inverted triangle markers—P. aeruginosa (wzy::Gm)(Δpa5458), diamond markers—N. meningitidis galE/lpt3 and circle markers—PBS control) or synthetic oligosaccharides representing the terminal methylated rhamnan (right hand panels; solid circle markers—pentasaccharide, open square markers—tetrasaccharide, open circle markers—trisaccharide, inverted triangle markers—disaccharide, diamond markers—disaccharide with linker, triangle markers—L-monomer, blue—D-monomer) against P. aeruginosa PAO1 BAA-47 whole cells. Serial dilution, as shown on the x-axis, of either LPS or synthetic oligosaccharide was combined at an equal volume with 10 μg/ml mAb. After 1 h incubation, 100 μl of this inhibition mixture was added to PAO1 BAA-47 whole cell coated plates. A secondary mAb specific for primary the mAb was added and absorbance measured after a colour reagent was added. Absorbance obtained when the mAb is no longer inhibited by additional LPS or synthetic oligosaccharide is equal to inhibition by PBS.
mAb inhibition ELISA: Wells of Nunc Maxisorp EIA plates were coated with either 1 μg of P. aeruginosa LPS in PBS overnight at 4° C. or P. aeruginosa killed whole cells in dH2O in a drying oven overnight, and then brought to RT before use. Plates were blocked with 1% BSA-PBS for 1 h at RT, and then wells were washed with PBS-T. During the blocking step, the inhibition was set-up. Either LPS or a synthetic oligosaccharide was added to a tube at either 1 mg/ml or 3 mg/ml and then a serial dilution with 1% BSA-PBS was performed, before an equal volume of mAb (1B1, 3B8 or 3C4) was added at a constant concentration of 10 μg/ml in 1% BSA-PBS, this mixture was incubated for 1 h at RT. Following washing of the EIA plate with PBS-T, 100 μl from the mixed tubes was added to the plate and allowed to incubate for 1 h at RT for LPS coated plates, or 3 h at RT for killed whole cell coated plates. Following washing with PBS-T, the appropriate AP-labeled goat anti-mouse Ig (Southern Biotech) specific for the mAb used, diluted 1:250 in 1% BSA-PBS, was added for 1 h at RT. The plates were then washed with PBS-T and developed with Phosphatase Substrate System (Kirkegaard and Perry Laboratories). After 60 min, absorbance was measured at 405 nm using a microtiter plate reader. […]
On the technique in general: An ELISA detects its analyte on a solid surface through an enzyme-linked reagent.

Another assay has as its system 1B1 IgM. The assay can be described thus: SPR binding of synthetic oligosaccharides to 1B1 IgM surface. The settings on record: for Obs Rmax (observed maximum binding response): high density 1B1 IgM surface, 25° C., HBS-EP; for Obs Rmax (observed maximum binding response) / ka / kd: two runs per oligosaccharide. Also on record: species or system mouse. On the procedure:
Various concentration ranges of synthetic oligosaccharides (see Experimental) were flowed over IgM 1B1 and an irrelevant IgM, Fn 4F1. Mcat lgt2/4: control oligosaccharide.
Surface plasmon resonance (SPR): SPR binding assays were performed at 25° C. on a Biacore T200 instrument in HBS-EP running buffer (Cytiva Life Sciences, Mississauga, Canada), essentially as described previously. Briefly, approximately 13000 RUs of IgM (PA 1B1 and control Fn 4F1) were amine coupled to a CM7S sensor chip in 10 mM acetate buffer, pH 4.0 (Cytiva). Synthetic oligosaccharides were reconstituted in HBS-EP to 25 mM and a series of dilutions prepared for injection over IgM surfaces. The contact time was 60 s and the dissociation time 120 s (mono-, di-) or 180 s (tri-, tetra-, penta-). The following concentration ranges were injected: mono- (1 mM-62.5 μM), di- (200 μM-12.5 μM) and tri-, tetra- and penta- (10 μM-625 nM). Mcat lgt2/4 an oligosaccharide from Moraxella catarrhalis, served as a control and was injected at 10 μM. Surfaces were regenerated by extensive washing with HBS-EP. Reference flow cell subtracted sensorgrams were fit to a 1:1 binding model to determine binding kinetics and affinities, or affinities were determined by steady-state analysis.
Synthetic carbohydrates ranging from a monosaccharide to pentasaccharide were flowed over high density surfaces of 1B1 IgM and an irrelevant IgM, Fn 4F1.
In general terms: Surface plasmon resonance follows binding to a sensor surface in real time, without labels.

In assay [1] the test system is killed whole cells of P. aeruginosa strains. The assay can be described thus: ELISA binding of mAbs to killed whole cells. The settings on record: summary statement, serotype strains and clinical isolates. Here is the method: FIGS. 11A, 11B, and 11C show ELISA analysis of binding of 1B1 (FIG. 11A), 3B8 (FIG. 11B), and 3C4 (FIG. 11C) purified monoclonal antibodies (mAbs) (all at 100 μg/ml) to killed whole cells of P. aeruginosa strains NRCC #'s 6678, 6668-70, 6954-60 and negative control strains M. catarrhalis 6541 and N. meningitidis 6263 (see Table 1 for full details of strains).
ELISA: The binding of anti-P. aeruginosa A-band terminal epitope mAbs and polyclonal sera to BSA conjugates, purified LPS and to whole cells was evaluated by ELISA as described previously.

A further assay concerns purified PAO1 LPS. Nature of the assay: mAb competition ELISA. The class given is binding, P. aeruginosa. The settings on record: PAO1 LPS coated plates; 3C4 at 62.5 μg/ml. On the procedure:
The plate was washed and mAb 3C4 was added at a constant concentration (62.5 μg/ml). A secondary mAb specific for mAb 3C4 was added and absorbance was measured after a colour reagent was added (line with square markers). The absorbance obtained when 3C4 was added to the plate without 1B1 competition is shown by the line with a triangle marker.
The plate was washed and mAb 3C4 was added at a constant concentration (62.5 μg/ml). A secondary mAb specific for mAb 3C4 was added and absorbance was measured after a colour reagent was added (line with square markers). The absorbance obtained when 3C4 was added to plate without 3B8 competition is shown by the line with a triangle marker.
mAb competition ELISA: Wells of Nunc Maxisorp EIA plates were coated with 1 μg of P. aeruginosa LPS in PBS overnight at 4° C. and then brought to RT before use. Plates were blocked with 1% BSA-PBS for 1 h at RT, and then wells were washed with PBS-T. One mAb (1B1 or 3B8) was titrated and added to the plate for 1 h at RT. Following washing with PBS-T, the second mAb (3C4) was added at a pre-determined concentration and allowed to incubate for 1 h at RT. Following washing with PBS-T, AP-labeled goat anti-mouse IgG2b (Southern Biotech) specific for mAb 3C4, diluted 1:250 in 1% BSA-PBS was added for 1 h at RT. The plates were then washed with PBS-T and developed with Phosphatase Substrate System (Kirkegaard and Perry Laboratories). After 60 min absorbance was measured at 405 nm using a microtiter plate reader.

Setting [2] is: 1:1 binding model, table: two runs, text: one value per oligosaccharide, read-out: KD.
The mark [3] stands for this setting: 1:1 binding model, listed as Tri-.

Take `CO[C@@H]([C@H](O)[C@@H](C)O)[C@H](O)C=O` [D-monosaccharide, 3-O-Methyl-D-rhamnose]: the “inhibition of binding of mAb 1B1 to its target LPS and killed whole cells” value (from here on “inhibition of binding of mAb 1B1”) with mAb 1B1 is recorded as “some evidence of inhibition”.
Consider `CO[C@@H]1[C@@H](O)[C@H](C)OC(O)[C@@H]1O` (stereo partly drawn) [L-monosaccharide, 3-O-Methyl-L-rhamnopyranose], for which the “inhibition of binding of mAb 1B1” value with mAb 1B1 is “completely ineffective in inhibition”.
With `CO[C@@H]1[C@H](O)[C@@H](O[C@H]2[C@H](OC)[C@H](O)C(O)O[C@@H]2C)O[C@H](C)[C@H]1O` (stereo partly drawn) [disaccharide, 3-O-Methyl-α-D-rhamnopyranoside-(1→4)-3-O-methyl-D-rhamnopyranose], the “inhibition of binding of mAb 1B1” value with mAb 1B1 is on record as “some evidence of inhibition”. Also, in the assay with 1B1 IgM (listed as Di-), the “Obs Rmax (observed maximum binding response)” value (“Obs Rmax” for short) was 14 and 15. The Kd on 1B1 IgM (steady-state analysis, listed as Di-, read-out: KD, steady state affinity) was 85800 nM and 82500 nM; at 1B1 IgM (steady-state analysis, read-out: KD, steady state affinity) it was 84000 nM.
In the case of `CO[C@@H]1[C@H](O)[C@@H](O[C@H]2[C@H](OC)[C@H](O)[C@@H](O[C@H]3[C@H](OC)[C@H](O)[C@@H](O[C@H]4[C@H](OC)[C@H](O)[C@@H](O[C@H]5[C@H](OC)[C@H](O)[C@@H](O)O[C@@H]5C)O[C@@H]4C)O[C@@H]3C)O[C@@H]2C)O[C@H](C)[C@H]1O` [pentasaccharide, 3-O-methyl-α-D-rhamnopyranoside-(1→4)-3-O-methyl-α-D-rhamnopyranoside-(1→4)-3-O-methyl-α-D-rhamnopyranoside-(1→4)-3-O-methyl-α-D-rhamnopyranoside-(1→4)-3-O-methyl-α-D-rhamnopyranose], in the assay with mAb 1B1, the “inhibition of binding of mAb 1B1” value is listed as “effectively equivalent in inhibiting”. Further, the Kd on 1B1 IgM (1:1 binding model, table: two runs, text: one value per oligosaccharide, listed as Penta-, read-out: KD) was found to be 540 nM; on 1B1 IgM (setting [2]), 550 nM. In addition, the ka with 1B1 IgM (1:1 binding model) was 3430 s⁻¹ and 5430 s⁻¹. Also, the kd at 1B1 IgM (1:1 binding model) was 0.00186 M⁻¹ s⁻¹ and 0.0019 M⁻¹ s⁻¹. Also, in the assay with 1B1 IgM, the “Obs Rmax” value is 34.
Consider `CO[C@@H]1[C@H](O)[C@@H](O[C@H]2[C@H](OC)[C@H](O)[C@@H](O[C@H]3[C@H](OC)[C@H](O)[C@@H](O[C@H]4[C@H](OC)[C@H](O)[C@@H](O)O[C@@H]4C)O[C@@H]3C)O[C@@H]2C)O[C@H](C)[C@H]1O` [tetrasaccharide, 3-O-methyl-α-D-rhamnopyranoside-(1→4)-3-O-methyl-α-D-rhamnopyranoside-(1→4)-3-O-methyl-α-D-rhamnopyranoside-(1→4)-3-O-methyl-α-D-rhamnopyranose], for which the “inhibition of binding of mAb 1B1” value in the assay with mAb 1B1 is “effectively equivalent in inhibiting”. The dissociation constant Kd at 1B1 IgM (1:1 binding model, table: two runs, text: one value per oligosaccharide, listed as Tetra-, read-out: KD) was determined as 650 nM. Also, on 1B1 IgM (setting [2]), the dissociation constant (Kd) amounted to 660 nM. In addition, in the assay on 1B1 IgM (1:1 binding model), the ka is 5690 s⁻¹ and 5260 s⁻¹; the kd was 0.00372 M⁻¹ s⁻¹ and 0.00348 M⁻¹ s⁻¹. Moreover, in the assay with 1B1 IgM, the “Obs Rmax” value is 28 and 29.
For `CO[C@@H]1[C@H](O)[C@@H](O[C@H]2[C@H](OC)[C@H](O)[C@@H](O[C@H]3[C@H](OC)[C@H](O)[C@@H](O)O[C@@H]3C)O[C@@H]2C)O[C@H](C)[C@H]1O` [trisaccharide, 3-O-methyl-α-D-rhamnopyranoside-(1→4)-3-O-methyl-α-D-rhamnopyranoside-(1→4)-3-O-methyl-α-D-rhamnopyranose], the “inhibition of binding of mAb 1B1” value is reported as “effectively equivalent in inhibiting” in the assay on mAb 1B1 and “effectively inhibited” in the assay with mAb 1B1 (listed as 3-O-methyl rhamnan trisaccharide). Besides, the Kd at 1B1 IgM (1:1 binding model, table: two runs, text: one value per oligosaccharide, listed as Tri-, read-out: KD) was 1370 nM and 1460 nM; on 1B1 IgM (setting [2]), 1420 nM. For the same molecule, the ka in the assay with 1B1 IgM (setting [3]) was 12800 s⁻¹ and 12300 s⁻¹. For the same molecule, the kd on 1B1 IgM (setting [3]) is 0.0176 M⁻¹ s⁻¹ and 0.0179 M⁻¹ s⁻¹. For the same molecule, the “Obs Rmax” value with 1B1 IgM is reported as 21.

B1: 3B8: mouse IgM monoclonal antibody to the A-PS terminus; VH SEQ ID NO: 13, VL SEQ ID NO: 17 (antibody, V domains shown)
VH: EIQLQQSGPELVKPGASVKVSCKASGYSFTDYNMYWVKQSHGKSLEWVGYIDPYNGGTTYNQKFKGKATLTVDKSSSTAFMHLNSLTSEDSAVYYCAKGGYRYDAWFAYWGQGTLVTVSA
VL: DAVMTQTPLSLPVSLGDHASISCRSSQSLENNNGNTYLNWYLQKPGQSPQLLIYRVSNRFSGVLDRFSGSGSGTDFTLKISRVEAEDLGVYFCLQVTHVPWTFGGGTKLEIK
For the molecule B1, the “range of P. aeruginosa strains recognised” value in assay [1] is “recognition restricted to the wt serotype 5 strains PAO1 BAA-47 and 5937”. In addition, the “epitope relation in competition ELISA with mAb 3C4” value in the assay on purified PAO1 LPS was “recognised similar overlapping epitopes”.
